Source: patent US20250090699A1, “FAP TARGETING CYCLIC PEPTIDES AND CONJUGATES THEREOF” (Novartis AG, priority 2023, published 2025)
Counter-ions that a name gives are not always drawn. Starred links: 1 amine or outer side, 2 acyl side, 3 side chain; linkers in the order of their positions; H or OH if unused. Non-standard residues stand in square brackets, D forms with d. Residues, ends and D or L forms follow the SMILES beside them. Groups on a side chain read outwards from the residue. *: point of attachment. F(4amPEG2NH-NOTA-Ga) = gallium complex of (S)-2,2'-(7-(1-(4-(2-amino-2-carboxyethyl)phenyl)-3,12-dioxo-5,8-dioxa-2,11-diazatridecan-13-yl)-1,4,7-triazonane-1,4-diyl)diacetic acid (Phe with 4-aminomethyl-PEG2-NOTA-Ga), O=C([O-])CN1CCN(CC(=O)[O-])CCN(CC(=O)NCCOCCOCC(=O)NCc2ccc(C[C@H](N[*:1])C(=O)[*:2])cc2)CC1.[Ga+3]; COpipzaa = 4-(carboxymethyl)piperazine-1-carbonyl, O=C(O)CN1CCN(C(=O)*)CC1; F(4amPEG2NHRDOTAGA-Lu) = Phe with 4-aminomethyl-PEG2-NH-DOTAGA, Lu complex; X8 = O=C(O)CN1CCN(CC(=O)O)CCN(CC(=O)O)C(Cc2ccc(NC(=S)*)cc2)CN(CC(=O)O)CC1; hS(Pr) = O-propyl-L-homoserine, CCCOCC[C@H](N[*:1])C(=O)[*:2]; DOTA = O=C(O)CN1CCN(CC(=O)O)CCN(CC(=O)*)CCN(CC(=O)O)CC1; Phe(4-CH2NH2) = NCc1ccc(C[C@H](N)C(=O)O)cc1; Piperazinyl(4-CH2COOH) = O=C(O)CN1CCN(*)CC1; 3Pal(6-NH2) = Nc1ccc(C[C@H](N)C(=O)O)cn1; AEF = NCCOc1ccc(C[C@H](N)C(=O)O)cc1; NMeF = CN[C@@H](Cc1ccccc1)C(=O)O; Ahp(2) = CCCCC[C@H](N)C(=O)O; Cba = N[C@@H](CC1CCC1)C(=O)O; hSer = N[C@@H](CCO)C(=O)O; AEEA = NCCOCCOCC(=O)O; CO = O=C([*:1])[*:2]; Propyl = CCC*

Assays:
[1] = target: T1, mouse FAP (Mus musculus, UniProt P97321); assay: Surface plasmon resonance (SPR) for peptide affinity, mouse FAP; assay type: binding
T1 construct: biotinylated His, Avi tag, mouse FAP (26-761, FAP-M82Q5); His; Avi tag (biotinylated); purchased AcroBiosystems FAP-M82Q5
T1 sequence (P97321 26-761): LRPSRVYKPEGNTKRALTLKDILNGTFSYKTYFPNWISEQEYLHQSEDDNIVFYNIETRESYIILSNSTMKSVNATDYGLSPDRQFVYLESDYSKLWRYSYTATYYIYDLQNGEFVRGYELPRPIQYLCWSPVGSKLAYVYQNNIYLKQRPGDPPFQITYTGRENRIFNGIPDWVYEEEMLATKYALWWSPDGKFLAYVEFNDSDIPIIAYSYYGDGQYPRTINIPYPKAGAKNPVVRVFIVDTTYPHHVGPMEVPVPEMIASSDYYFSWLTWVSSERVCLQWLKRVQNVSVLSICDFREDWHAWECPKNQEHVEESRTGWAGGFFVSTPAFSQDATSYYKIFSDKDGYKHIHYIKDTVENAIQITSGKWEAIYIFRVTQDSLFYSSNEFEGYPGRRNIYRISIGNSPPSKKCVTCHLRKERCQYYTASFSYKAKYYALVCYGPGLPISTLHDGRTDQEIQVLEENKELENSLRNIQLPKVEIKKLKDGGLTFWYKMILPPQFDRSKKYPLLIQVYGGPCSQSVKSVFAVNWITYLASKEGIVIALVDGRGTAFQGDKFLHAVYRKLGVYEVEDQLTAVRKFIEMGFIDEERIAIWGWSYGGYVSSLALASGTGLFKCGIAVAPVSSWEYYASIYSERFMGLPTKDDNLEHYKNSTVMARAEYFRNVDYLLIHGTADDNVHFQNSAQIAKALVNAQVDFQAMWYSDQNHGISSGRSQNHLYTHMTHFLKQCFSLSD
In short: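 Biotinylated His/Avi-tagged FAP ectodomains (human 26-760, mouse 26-761) captured or immobilized on Biacore sensor chips; peptides run at 25 °C in HBS-EP+ pH 7.6 with 2% DMSO, single-cycle kinetics, 8 concentrations. KD from 1:1 binding-model fit of sensorgrams.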

[2] = target: T1, mouse FAP; assay: Enzymatic FAP competition assay (Z-Gly-Pro-AMC fluorescence), mouse FAP; assay type: biochemical; conditions: read-out: m. FAP, Enz., IC50
In short: (§1)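 Biotinylated His/Avi-tagged FAP ectodomain (human 26-760, mouse 26-761) at 0.01 nM, preincubated 24 h with peptides (14 concentrations, up to 1 μM) in pH 7.5 phosphate, 150 mM NaCl, 0.05% Tween20, 1% DMSO. Then 50 μM Z-Gly-Pro-AMC, 4 h at 22-24° C; AMC fluorescence (380/460 nm) gave IC50 from duplicate points.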

[3] = target: T2, human FAP (Homo sapiens, UniProt Q12884); assay: Enzymatic FAP competition assay (Z-Gly-Pro-AMC fluorescence), human FAP; assay type: biochemical; conditions: read-out: h. FAP, Enz., IC50
T2 construct: the biotinylated His, Avi tag, human FAP (26-760, FAP-H82Q6); His; Avi tag (biotinylated); purchased AcroBiosystems FAP-H82Q6
T2 sequence (Q12884 26-760): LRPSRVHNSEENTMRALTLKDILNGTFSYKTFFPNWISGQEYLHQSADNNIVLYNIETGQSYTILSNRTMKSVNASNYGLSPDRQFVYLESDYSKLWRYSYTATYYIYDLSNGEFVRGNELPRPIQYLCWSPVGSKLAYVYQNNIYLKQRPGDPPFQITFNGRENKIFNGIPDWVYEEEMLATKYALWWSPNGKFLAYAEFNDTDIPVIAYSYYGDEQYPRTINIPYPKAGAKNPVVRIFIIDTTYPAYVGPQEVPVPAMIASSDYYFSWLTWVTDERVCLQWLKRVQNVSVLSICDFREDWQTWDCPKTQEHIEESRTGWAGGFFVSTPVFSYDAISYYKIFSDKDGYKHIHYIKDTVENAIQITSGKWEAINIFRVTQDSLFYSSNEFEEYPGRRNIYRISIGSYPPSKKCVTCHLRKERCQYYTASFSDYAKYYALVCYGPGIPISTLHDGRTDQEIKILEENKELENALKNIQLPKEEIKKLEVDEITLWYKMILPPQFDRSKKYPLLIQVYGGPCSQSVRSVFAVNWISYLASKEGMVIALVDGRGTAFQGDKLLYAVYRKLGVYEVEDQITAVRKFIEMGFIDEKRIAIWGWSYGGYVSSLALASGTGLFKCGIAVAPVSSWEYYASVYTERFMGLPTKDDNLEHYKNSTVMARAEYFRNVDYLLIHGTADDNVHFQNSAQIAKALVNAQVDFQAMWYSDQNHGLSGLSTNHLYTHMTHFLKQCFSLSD
In short: as §1

Row | Compound | Kd [1] | IC50 [2] | IC50 [3]
1 | CCCCC[C@@H]1NC(=O)[C@H](Cc2ccc(OCCNC(=O)CN3CCN(CC(=O)O)CCN(CC(=O)O)CCN(CC(=O)O)CC3)cc2)NC(=O)[C@H](Cc2ccccc2)N(C)C(=O)CNC(=O)CNC(=O)[C@H]2CCCN2C(=O)[C@H](CC(=O)O)NC(=O)[C@H](Cc2ccc(O)cc2)NC(=O)CNC(=O)[C@H](Cc2c[nH]c3ccccc23)NC1=O [Example B23, Gly-Gly-NMePhe-F(4OEtNHDOTA)-Ahp-Trp-Gly-Tyr-Asp-D-Pro, TFA salt] (cyclo([AEF](DOTA)[Ahp(2)]WGYD[dP]GG[NMeF])) | 0.077 nM | 0.059 nM | 0.012 nM
2 | CCCCC[C@@H]1NC(=O)[C@H](Cc2ccc(OCCN)cc2)NC(=O)[C@H](Cc2ccccc2)N(C)C(=O)CNC(=O)CNC(=O)[C@H]2CCCN2C(=O)[C@H](CC(=O)O)NC(=O)[C@H](Cc2ccc(N)nc2)NC(=O)CNC(=O)[C@H](Cc2c[nH]c3ccccc23)NC1=O [Example A45, Gly-Gly-NMePhe-F(4OEtNH2)-Ahp-Trp-Gly-3PyA(6NH2)-Asp-D-Pro, TFA salt] (cyclo([AEF][Ahp(2)]WG[3Pal(6-NH2)]D[dP]GG[NMeF])) | 0.54 nM | 0.93 nM | 0.192 nM
3 | CCCCC[C@@H]1NC(=O)[C@H](Cc2ccc(O)cc2)NC(=O)[C@H](CC2CCC2)NC(=O)CNC(=O)CNC(=O)[C@H]2CCCN2C(=O)[C@H](CC(=O)O)NC(=O)[C@H](Cc2ccc(O)cc2)NC(=O)CNC(=O)[C@H](Cc2c[nH]c3ccccc23)NC1=O [Example A60, Gly-Gly-cBuA-Tyr-Ahp-Trp-Gly-Tyr-Asp-D-Pro] (cyclo([Ahp(2)]WGYD[dP]GG[Cba]Y)) | 0.05 nM | 0.127 nM | 0.041 nM

Results, then the compound that gave them:

Row | Kd [1] | IC50 [2] | IC50 [3] | Compound
4 | 0.059 nM | 0.055 nM | 0.021 nM | CCCOCC[C@@H]1NC(=O)[C@H](Cc2ccc(CNC(=O)COCCOCCNC(=S)Nc3ccc(CC4CN(CC(=O)O)CCN(CC(=O)O)CCN(CC(=O)O)CCN4CC(=O)O)cc3)cc2)NC(=O)[C@H](Cc2ccccc2)N(C)C(=O)CNC(=O)CNC(=O)[C@H]2CCCN2C(=O)[C@H](CC(=O)O)NC(=O)[C@H](CCCCNC(=O)N2CCN(CC(=O)O)CC2)NC(=O)CNC(=O)[C@H](Cc2c[nH]c3ccccc23)NC1=O (stereo partly drawn) [Example B35, Gly-Gly-NMePhe-F(4amPEG2NH-p-SCN-DOTA-hS(Pr)-Trp-Gly-K(COpipzaa)-Asp-D-Pro] (cyclo(D[dP]GG[NMeF][Phe(4-CH2NH2)]([AEEA-X8])[hSer](Propyl)WGK([CO-Piperazinyl(4-CH2COOH)])))
5 | 0.242 nM | 0.61 nM | 0.69 nM | CCCCC[C@@H]1NC(=O)[C@H](Cc2ccc(O)cc2)NC(=O)[C@H](Cc2ccccc2)N(C)C(=O)CNC(=O)CNC(=O)[C@H]2CCCN2C(=O)[C@H](CCC(=O)O)NC(=O)[C@H](Cc2ccc(O)cc2)NC(=O)CNC(=O)[C@H](Cc2c[nH]c3ccccc23)NC1=O [Example A71, Gly-Gly-NMePhe-Tyr-Ahp-Trp-Gly-Tyr-Glu-D-Pro] (cyclo([Ahp(2)]WGYE[dP]GG[NMeF]Y))
6 | < 0.043 nM | 0.031 nM | 0.013 nM | Gly-Gly-NMePhe-F(4amPEG2NH-NOTA-Ga)-hS(Pr)-Trp-Gly-K(COpipzaa)-Asp-D-Pro (cyclo(GG[NMeF][F(4amPEG2NH-NOTA-Ga)][hS(Pr)]WGK(COpipzaa)D[dP]); also: Ga complex) [Example C41]
7 | < 0.02 nM | 0.026 nM | 0.012 nM | Gly-Gly-NMePhe-F(4amPEG2NHRDOTAGA-Lu)-hS(Pr)-Trp-Gly-K(COpipzaa)-Asp-D-Pro (cyclo(GG[NMeF][F(4amPEG2NHRDOTAGA-Lu)][hS(Pr)]WGK(COpipzaa)D[dP]); also: Lu complex) [Example C33]
